The text below walks through data of patent publication US11420922B2, “Hydroxylated tropolone inhibitors of nucleotidyl transferases in herpesvirus and Hepatitis B and uses therefor” (Saint Louis University, priority 2015, dated 2022).

What is called CLint scaled is the capacity of the preparation to metabolise the compound, expressed as a volume cleared per time. What is called EC50 is the concentration at which the effect is half-maximal.

Some results are limits rather than exact numbers.

Data set [1] concerns Vero cells. Put plainly: Qualitative (visual) Vero cell toxicity. It counts as cell-based. The note with it: visual inspection in primary screen, key to t, T not given. The procedure:
Qualitative assessments of cytotoxicity were done visually by inspecting the cells in the primary screening assays. For the quantitative assays, cells were plated in 96-well plates at 1.0×10^4 per well. The next day the compounds were added at 0.78 to 100 μM in a final concentration of 1% (v/v) DMSO, and the cells were incubated for 24 hours under conditions identical to those employed for the viral replication inhibition assays. Mitochondrial toxicity was measured by incubating the cells with 0.25 mg/mL thiazolyl blue tetrazolium bromide (MTT, Sigma Aldrich Chemical Co.), the cultures were incubated for 60 min, metabolites were solubilized in acidic isopropanol, and absorbance was read at 570 nm. CC50 values were calculated by non-linear curve fitting using GraphPad Prism.
Compound toxicity was measured both subjectively and quantitatively. Subjective assessments were done by visually inspecting the infected cells at the end of the 24 h infection window through a phase-contrast microscope.

Data set [2] has as its system HSV-1. Kind of data set: Anti-HSV-1 replication assay in Vero cells, titers by plaque assay. It counts as cell-based, herpes simplex virus 1. The note with it: Human alphaherpesvirus 1, Vero, 24 h; for log reduction at 5 µM: read-out: HSV-1 Log suppression 5 μM; for log reduction at 50 µM: read-out: HSV-1 Log suppression 50 μM. The gist of the method:
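Vero monolayers infected with clinical HSV-1 or HSV-2 isolates at MOI 0.1 with compound present (50 and 5 μM final), 1 h at 37° C, then compound in DMEM for another 23 h. Yield titered by plaque assay on Vero cells; EC50 by nonlinear fit of serial dilutions starting at 50 μM, DMSO controls.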

The test system of data set [3] is HSV-2. Kind of data set: Anti-HSV-2 replication assay in Vero cells, titers by plaque assay. The settings on record: Human alphaherpesvirus 2, Vero, 24 h; for log reduction at 5 µM: read-out: HSV-2 Log suppression 5 μM; for log reduction at 50 µM: read-out: HSV-2 Log suppression 50 μM. It counts as cell-based, herpes simplex virus 2.
The test system of data set [4] is HSV. Kind of data set: Anti-HSV SAR summary, HSV type not separated. Format: cell-based, herpes simplex virus. The settings on record: grouped by activity at 50, 5 and 0.5 μM. Put shortly: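 Confluent monolayers were infected with HSV-1 or HSV-2 at MOI 0.1 in the presence of compound at 50 and 5 µM for 1 h at 37 °C. Compound was then re-added in DMEM/2% newborn calf serum for 23 h more. Yield was titred by plaque assay on Vero cells, with DMSO controls. EC50 values came from serial dilutions starting at 50 µM, fitted by non-linear regression.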

The nature of data set [5]: Mouse liver microsome assay. It counts as in vitro ADME. The note with it: 1 μM in mouse liver microsomes; for ER: extraction ratio. The procedure:
Microsomal incubations are run at a final P450 concentration of 0.25 μM. The microsomal mixture is composed of 0.1M potassium phosphate containing 3.3 mM MgCl and 1 μM compound (final concentration). The mixture is prewarmed for 5 min at 37° C. To initiate the reaction a 12 mM stock of NAPDH (1.2 mM, final concentration) is added to the warmed microsomal mixture and aliquots are removed at 0, 5, 10, 20 and 30 min. Samples are quenched with ice cold acetonitrile containing internal standard and either 1.8 mM EDTA or EGTA (final concentration). Samples are vortexed and spun down at 3200 rpm for 5 min. The supernant is transferred to 96-deep well plates and run on LC/MS/MS.
On the technique in general: Liver microsomes are a subcellular fraction often used to study metabolism.

The subject of data set [6] is patient-derived RNAseH enzymes (genotypes B, C and D). Kind of data set: Biochemical RNAseH assay with patient-derived variant enzymes. More on the design: species or system Hepatitis B virus. The settings on record: for inhibition of four genotype D RNAseH enzymes: compound at its IC50, FIGS. 7A & 7B; for inhibition of all 12 variant RNAseH enzymes, in words: compound at its IC50, genotypes B, C and D. From the text:
Four variant patient-derived RNAseH enzymes were expressed as recombinant enzymes, purified, and tested in an RNAseH assay with compounds #1 (FIG. 7A) and #46 (FIG. 7B) at their respective IC50s.
HBV has at least 8 genotypes differing in sequence by 8%. Genetic diversity in the RNAseH domain is about 6%, which is easily high enough to modulate viral sensitivity to RNAseH inhibitors. Therefore, the inventors tested the RNAseH inhibitors #1 [2-hydroxyisoquinoline-1,3(2H,4H)-dione], an HID, and #46 (β-thujaplicinol), an α-hydroxytropolone, for the ability to inhibit variant RNAseHs. Twelve purified, patient-derived RNAseH enzymes (4 from each genotypes B, C and D) were tested with the compounds at their respective IC50 values in a biochemical RNAseH assay. […] Therefore, HBV's high genetic variation is unlikely to present a substantial barrier to drug development.

Data set [7] deals with HSV-2. The note with it: 5 μM or less; cited from earlier work.
The test system of data set [8] is HBV replication. Kind of data set: Chou-Talalay combination of RNAseH inhibitors with Lamivudine against HBV replication. It counts as cell-based, Hepatitis B virus. The settings on record: CI <1.0 synergy, ~1.0 additive, >1.0 antagonism. From the text: Additive interactions are shown with the red line, synergistic interactions below the line, and antagonistic interactions are above the line.
Current nucleos(t)ide analog therapy for HBV has converted hepatitis type B from an implacably progressing illness to a controllable disease. However, patients are only very rarely cured, in part due to the incomplete inhibition of HBV replication. The inventors hypothesized that the novel RNaseH inhibitors would work synergistically with the existing nucleos(t)ide analogs because the two classes of drugs target physically distinct active sites on the viral polymerase protein. […] RNAseH inhibitors from two different chemical classes were employed, compound #1 [2-hydroxyisoquinoline-1,3(2H,4H)-dione], an HID, and #46 (β-thujaplicinol), an α-hydroxytropolone, were tested. Chou-Talaly analysis yields a combination index (CI). CI values<1.0 indicate synergy, CIs of approximately 1.0 indicate additive interactions, and CI values>1.0 indicate antagonism. CI values are calculated at various efficacy levels (EC50, EC75, EC90, and EC95), and a weighted CI value favoring higher efficacy levels is also generated. FIGS. 6A & 6B show the results of four experiments employing compound #1 and three with compound #46. […] Therefore, RNAseH inhibitors act strongly synergistically with an approved nucleos(t)ide analog drug against HBV.

For data set [9], the system named is HSV-1. The note with it: 5 μM or less; cited from earlier work.
For data set [10], the system named is HBV. Put plainly: HBV replication assay in HepDES19 cells. It counts as cell-based. The note with it: Hepatitis B virus; HepDES19 cells; read-out: EC50 (HBV assay). The gist of the method: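 HepDES19 cells induced by tetracycline withdrawal, then compound applied 48 h later in duplicate (1% DMSO final) and refreshed daily for two more days. After micrococcal nuclease digestion, capsid-associated HBV DNA purified and plus- and minus-strand DNA quantified by TaqMan PCR.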

Turning to `CCOC(=O)c1c(C)cc(O)c(=O)c(O)c1C` [Compound 117], the “Vero cell toxicity Qualitative” value in data set [1] was “t?”. Moreover, in data set [2], the log reduction at 5 µM worked out at 0.76 and the log reduction at 50 µM is 4.66. In data set [3], the log reduction at 5 µM is -0.16 and the log reduction at 50 µM was determined as 4.97. Besides, the “anti-HSV SAR group, in words” value in [4] is “weakest inhibitors”.

Turning to `CC(C)c1ccc(O)c(=O)c(O)c1` [Compound 46, β-thujaplicinol, reference compound], in data set [5], the “CL ′hep” value is 70 mL/min/kg, the “CL′int” value was determined as 318 mL/min/kg, the Non-P450 turn-over entry is given as “No” and the “t ½” value was found to be 0.267 h. Further, the ER in data set [5] turned out to be 0.78. Further, in [6], the “inhibition of four genotype D RNAseH enzymes” value is “about 50%” and the “inhibition of all 12 variant RNAseH enzymes, in words” value is “Equivalent results”. In data set [7], the “suppression of HSV-2 replication in cell culture, in words” value was “strongly suppress”. Besides, the “weighted CI value (combination index) with Lamivudine” value in [8] is 0.44±0.3. In [9], the “suppression of HSV-1 replication in cell culture, in words” value is “strongly suppress”.

In the case of `CC(=O)c1cc(O)c(=O)c(O)cc1C` [Compound 110], in data set [5], the Non-P450 turn-over entry is “No” and the ER is 0.22. For the same compound, the half-life at 1 μM in data set [5] (read-out: t ½) was over 2 h. The compound also gave an intrinsic metabolic clearance (CLint scaled) at 1 μM in data set [5] (mouse, liver microsomes) of 26 mL/min/kg. In addition, in data set [5] (mouse, liver microsomes, read-out: CL ′hep), the predicted hepatic clearance at 1 μM was 20 mL/min/kg. Besides, in data set [10], the EC50 came out at 340 nM. Also, in [1], the “Vero cell toxicity Qualitative” value is “t?”. In data set [2], the log reduction at 5 µM was -0.47 and the log reduction at 50 µM worked out at 5.11. Further, in [3], the log reduction at 5 µM is -0.65 and the log reduction at 50 µM was determined as 4.24. Besides, the “anti-HSV SAR group, in words” value in data set [4] was “weakest inhibitors”.

Take `O=C1Cc2ccccc2C(=O)N1O` [Compound 1, 2-hydroxyisoquinoline-1,3(2H,4H)-dione]: in [6], the “inhibition of four genotype D RNAseH enzymes” value is on record as “about 50%” and the “inhibition of all 12 variant RNAseH enzymes, in words” value is reported as “Equivalent results”. Also, in data set [8], the “weighted CI value (combination index) with Lamivudine” value stood at 0.70±0.1.
